The data set can be described thus: molar heat capacity at constant pressure. The following applies: 101.33 kPa, Crystal, Small sample (50 mg) DSC.

± gives the expanded uncertainty stated by the source.

For `NC(N)=C([N+](=O)[O-])[N+](=O)[O-]` [1,1-diamino-2,2-dinitroethene], the “molar heat capacity at constant pressure” value is, setting by setting: (283 K) 169.55 ± 3.4 J/K/mol; (293 K) 174.14 ± 3.6 J/K/mol; (298 K) 176.51 ± 3.6 J/K/mol; (303 K) 178.73 ± 3.6 J/K/mol; (313 K) 183.32 ± 3.7 J/K/mol; (323 K) 187.91 ± 3.7 J/K/mol. The “molar heat capacity at constant pressure” value (333 K) was 192.5 ± 3.9 J/K/mol, the “molar heat capacity at constant pressure” value (343 K) is reported as 197.09 ± 4 J/K/mol and the “molar heat capacity at constant pressure” value (353 K) is recorded as 201.68 ± 4 J/K/mol.
As to `O=[N+]([O-])C(=C1NCCCCN1)[N+](=O)[O-]` [2-(dinitromethylene)-1,3-diazacycloheptane], the “molar heat capacity at constant pressure” value is, setting by setting: (283 K) 204.6 ± 4 J/K/mol; (293 K) 211.67 ± 4.2 J/K/mol; (298 K) 215.31 ± 4.2 J/K/mol; (303 K) 218.75 ± 4.4 J/K/mol; (313 K) 226.03 ± 4.4 J/K/mol; (323 K) 233.1 ± 4.6 J/K/mol. Moreover, the “molar heat capacity at constant pressure” value (333 K) was found to be 240.18 ± 4.9 J/K/mol, the “molar heat capacity at constant pressure” value (343 K) is 247.25 ± 4.9 J/K/mol and the “molar heat capacity at constant pressure” value (353 K) is on record as 254.33 ± 5.1 J/K/mol.
On to `O=[N+]([O-])C(=C1NCCCN1)[N+](=O)[O-]` [2-(dinitromethylene)-1,3-diazacyclohexane], for which the “molar heat capacity at constant pressure” value runs as follows: (283 K) 200.18 ± 4 J/K/mol; (293 K) 205.26 ± 4.1 J/K/mol; (298 K) 207.71 ± 4.1 J/K/mol; (303 K) 210.16 ± 4.1 J/K/mol; (313 K) 215.05 ± 4.3 J/K/mol; (323 K) 220.13 ± 4.3 J/K/mol. The “molar heat capacity at constant pressure” value reads like this: (333 K) 225.02 ± 4.5 J/K/mol; (343 K) 230.1 ± 4.5 J/K/mol; (353 K) 234.99 ± 4.7 J/K/mol.
`O=[N+]([O-])C(=C1NCCN1)[N+](=O)[O-]` [2-(dinitromethylene)-1,3-diazacyclopentane]: the “molar heat capacity at constant pressure” value (283 K) turned out to be 197.45 ± 4 J/K/mol; the “molar heat capacity at constant pressure” value (293 K) amounted to 202.67 ± 4 J/K/mol; the “molar heat capacity at constant pressure” value (298 K) is reported as 205.28 ± 4.2 J/K/mol; the “molar heat capacity at constant pressure” value (303 K) is 207.89 ± 4.2 J/K/mol; the “molar heat capacity at constant pressure” value (313 K) is recorded as 213.29 ± 4.4 J/K/mol; the “molar heat capacity at constant pressure” value (323 K) worked out at 218.52 ± 4.4 J/K/mol. The “molar heat capacity at constant pressure” value is on record as 223.74 ± 4.5 J/K/mol (333 K), 229.14 ± 4.5 J/K/mol (343 K) and 234.36 ± 4.7 J/K/mol (353 K).
`CC1CNC(=C([N+](=O)[O-])[N+](=O)[O-])N1` (stereo not given) [2-(dinitromethylene)-4-methylimidazolidine]: the “molar heat capacity at constant pressure” value amounted to 209.78 ± 4.1 J/K/mol (283 K); 215.8 ± 4.3 J/K/mol (293 K); 218.81 ± 4.3 J/K/mol (298 K); 221.82 ± 4.5 J/K/mol (303 K); 227.84 ± 4.5 J/K/mol (313 K); 233.86 ± 4.7 J/K/mol (323 K). In addition, the “molar heat capacity at constant pressure” value is 239.88 ± 4.9 J/K/mol (333 K), 245.9 ± 4.9 J/K/mol (343 K) and 251.92 ± 5.1 J/K/mol (353 K).

Source of the values: the NIST ThermoML archive (doi:10.1021/acs.jced.5b00021).
